# Test results taken from patent US6281354A, “Analogs of duocarmycin and cc-1065” (The Scripps Research Institute, priority 1999, dated 2001).
# Like-named read-outs stand apart in the source and are kept apart here.
# Columns and labels:
# w794 DNA [1] = experiment: DNA alkylation (thermal strand cleavage, PAGE) within w794 DNA; type: biochemical, SV40
# [2] = system: duplex DNA (w794, w836, c988, c820, c1346); type: biochemical, SV40; conditions: for sequence preference at the alkylation site: consensus alkylation sequence; for alkylation of individual three-base sequences: 5'-TTA or 5'-ATA
# w836 DNA = experiment: DNA alkylation sites and relative rates within the six-base A sequence (5'-AAAAAA) of w836 DNA; type: biochemical, SV40; conditions: for alkylated adenines within six-base A-rich sequence of w836 DNA / AT-rich binding site covered in w836 DNA: 5'-AAAAAA
# w794 DNA [3] = conditions: pH 7.5, earlier studies; cited from earlier work
# w794 DNA [4] = experiment: Rate of DNA alkylation at the single w794 high affinity site: pH and buffer dependence; type: biochemical, SV40
# Method: Rate of DNA Alkylation: pH Dependence. […] Because this was conducted using w794 DNA additionally containing >7000 base-pairs and multiple binding sites within the unlabeled portion of the DNA, the comparisons were conducted at concentrations that provide saturated binding and restrict the kinetic analysis to the pseudo-first order rate constant for alkylation. […] The relative lack of dependence on the acid concentration (pH) especially in the most relevant pH range of 7-8 in conjunction with the observations made in the accompanying paper has led us to propose an alternative source of reaction catalysis.
# Relative Rates of DNA Alkylation for (+)-1 at pH 6-8. Eppendorf tubes containing 5' end-labeled w794 DNA (9 μL) in phosphate buffer (10 mM) at pH 6.0, 6.6, 7.1, 7.6, and 8.1 were prepared. The solutions at each pH were treated with (+)-duocarmycin SA (1μL, 10^-6 M in DMSO), mixed and incubated at 25° C. for 0.5, 1.0, 1.5, 2.0 and 3.0 h. […] The reactions were stopped at each time interval by EtOH precipitation of the DNA. The alkylated DNA was resuspended in TE buffer (10 μL, pH 7.5) and heated at 100° C. for 30 min follwed by PAGE and autoradiography as detailed above.
# Since these observations sharply contrast the proposed important role of acid catalysis for activation of the agents toward DNA alkylation which has served as the basis for one prominent proposal for the origin of the DNA alkylation selectivity, we have examined in detail the pH dependence of the rate of DNA alkylation for duocarmycin SA (1) and CCBI-TMI over a physiologically relevant range. […] Between pH 6-7, the slope of the plot of pH versus log κobs was 0.2-0.3, far lower than that of 1.0 required of a first-order dependence on acid concentration.
# w794 DNA [5] = experiment: Relative rates of DNA alkylation for (+)-1, 53 and 54 at the w794 5'-AATTA site; type: biochemical, SV40; conditions: for concentration dependence of the rate of DNA alkylation: 10^-4 -10^-6 M
# Method: Modifications in the Trimethoxyindole Subunit: Role of the Methoxy Substituents. DNA alkylation by the natural enantiomers of 53-56 were compared with that of 1 in w794 DNA.
# Relative Rates of DNA Alkylation for (+)-1, 53, and 54. Following the procedure detailed above, Eppendorf tubes containing 5' end-labeled w794 DNA (9 μL) in TE buffer (pH 7.5) were treated with (+)-duocarmnycin SA, 53, or 54 (1 μL, 10^-5 M in DMSO). […] The solutions were mixed and incubated at 25° C. for 1, 3, 6, 12, 24, 48, and 72 h, respectively. Subsequent isolation of the alkylated DNA by EtOH precipitation, resuspension in TE buffer (10 μL, pH 7.5), thermolysis (30 min, 100° C.), concurrent PAGE, and autoradiography were conducted as detailed above. The relative rate for the alkylation at the 5'-AATTA site was derived from the slopes of the plots of percent integrated optical density (IOD) of the high affinity alkylation site cleavage bands versus time.
# [6] = In vitro cytotoxic activity
# [7] = natural enantiomers, 25° C., 24 h
# [8] = 5×10^-6 M agent (so in the source), 25° C., w836 5'-AAAAAA
smiles,measurement,setting,value
"COc1c(O)c2c(c3cc(C(=O)N4CCc5c4c(O)c(OC)c4[nH]c(C(=O)N6CC7CC78C6=CC(=O)c6[nH]cc(C)c68)cc54)[nH]c13)CCN2C(N)=O (stereo not drawn) [ent-(-)-CC-1065, reference compound]",high affinity alkylation site in w794 DNA,w794 DNA [1],5'-AATTT
same,AT-rich adenine N3 alkylation selectivity (size of site),[2],5 base-pair
"COC(=O)c1cc2c([nH]1)C(=O)C=C1N(C(=O)c3cc4cccc(OC)c4[nH]3)CC3CC123 (single isomer, unassigned) [compound 56, Methyl 2-[(7-Methoxyindol-2-yl)carbonyl]-1,2,8,8a-tetrahydrocyclopropa[c]pyrrolo[3,2-e]indol-4-one-6-carboxylate]",less efficient DNA alkylation than 1,w794 DNA [1]; [7],5-10 ×
"COC(=O)c1cc2c3c(ccc2[nH]1)N(C(=O)c1cc2c([nH]1)C(=O)C=C1N(C(=O)c4cc5c6c(ccc5[nH]4)N(C(N)=O)CC6)CC4CC124)CC3 (single isomer, unassigned) [ent-(-)-30]",sequence preference at the alkylation site,[2],5'-AAA>5'-AAT≥5'TAA>5 TAT
same,alkylated adenines within six-base A-rich sequence of w836 DNA,w836 DNA,alkylated those central to the sequence
"COC(=O)c1cc2c([nH]1)C(=O)C=C1N(C(=O)c3cc4c5c(ccc4[nH]3)N(C(=O)c3cc4c6c(ccc4[nH]3)N(C(N)=O)CC6)CC5)CC3CC123 (single isomer, unassigned; (+)) [(+)-DSA-CDPI2]",alkylation of the minor w794 site (5'-CAAAG),w794 DNA [1],failed to alkylate
same,high affinity alkylation site in w794 DNA,w794 DNA [1],5'-AATTA
same,AT-rich adenine N3 alkylation selectivity (size of site),[2],5 base-pair
same,alkylation of individual three-base sequences,[2],unusually effective alkylation of 5'-TTA
same,sequence preference at the alkylation site,[2],5'-AAA>5'-TTA>5'-TAA≥5'-ATA
same,AT-rich binding site covered in w836 DNA,w836 DNA,5 base-pair
same,alkylated adenines within six-base A-rich sequence of w836 DNA,w836 DNA,only the 3' adenines
same,time after which extensive DNA alkylation is exhibited,w836 DNA; [8],1 to 5 min
"COC(=O)c1cc2c([nH]1)C(=O)C=C1N(C(=O)c3cc4c5c(ccc4[nH]3)N(C(N)=O)CC5)CC3CC123 (single isomer, unassigned; (+)) [(+)-DSA-CDPI1]",alkylation of the minor w794 site (5'-CAAAG),w794 DNA [1],prominently alkylates
same,concentration required at minor site (5'-CAAAG) relative to major 5'-AATTA site,w794 DNA [1],10 x
COc1cc2cc(C(=O)N3C[C@H]4C[C@@]45C3=CC(=O)c3ccc(C#N)cc35)[nH]c2c(OC)c1OC [CCBI-TMI],relative rate of DNA alkylation at w794 high affinity site,w794 DNA [3],2.5 ×
same,change in rate of DNA alkylation over 2 pH units,"w794 DNA [4]; 10^-6 M, 25° C., 10 mM phosphate buffer, pH 6.0-8.1",< 3 ×
same,effect of EDTA on the rate of DNA alkylation,w794 DNA [4]; Tris or phosphate buffer,had or no effect
same,slope of plot of pH versus log κobs,w794 DNA [4]; pH 6-7,0.2-0.3
same,pH dependence of the rate of DNA alkylation,w794 DNA [4]; pH 7-8,the rate dependence on pH essentially disappeared
same,faster alkylation of w794 high affinity site than (+)-1,w794 DNA [4]; throughout the pH range,1.9-2.5 ×
"COC(=O)c1cc2c([nH]1)C(=O)C=C1N(C(=O)c3cc4cc(OC)ccc4[nH]3)CC3CC123 (single isomer, unassigned) [compound 54, Methyl 2-[(5-Methoxyindol-2-yl)carbonyl]-1,2,8,8a-tetrahydrocyclopropa[c]pyrrolo[3,2-e]indol-4-one-6-carboxylate]",concentration dependence of the rate of DNA alkylation,w794 DNA [5],independent of agent concentration
same,relative rate of DNA alkylation κrel versus 53,"w794 DNA [5]; 10^-5 M, 25° C., 1-72 h, 5'-d(AATTA)",18-33
same,"DNA alkylation compared with duocarmycin SA (1), in words",w794 DNA [1]; [7],essentially indistinguishable from 1
"COC(=O)c1cc2c3c(ccc2[nH]1)N(C(=O)c1cc2c([nH]1)C(=O)C=C1N(C(=O)c4cc5c6c(ccc5[nH]4)N(C(N)=O)CC6)CC4CC124)CC3 (single isomer, unassigned; (+)) [(+)-30]",AT-rich adenine N3 alkylation selectivity (size of site),[2],5 base-pair
same,sequence preference at the alkylation site,[2],5'-AAA>5'-AAT≥5'TAA>5 TAT
same,alkylated adenines within six-base A-rich sequence of w836 DNA,w836 DNA,alkylated those central to the sequence
"COC(=O)c1cc2c([nH]1)C(=O)C=C1N(C(=O)c3cc4ccc(OC)cc4[nH]3)CC3CC123 (single isomer, unassigned) [compound 55, Methyl 2-[(6-Methoxyindol-2-yl)carbonyl]-1,2,8,8a-tetrahydrocyclopropa[c]-pyrrolo[3,2-e]indol-4-one-6-carboxylate]",less efficient DNA alkylation than 1,w794 DNA [1]; [7],5-10 ×
COC(=O)c1cc2c3c(ccc2[nH]1)N(C(=O)c1cc2c4c(ccc2[nH]1)N(C(=O)c1cc2c([nH]1)C(=O)C=C1N(C(=O)OC(C)(C)C)C[C@@H]5C[C@@]125)CC4)CC3 [ent-(-)-CDPI2 -DSA],high affinity alkylation site in w794 DNA,w794 DNA [1],5'-AATTA
same,AT-rich adenine N3 alkylation selectivity (size of site),[2],5 base-pair
same,alkylation of individual three-base sequences,[2],under represented alkylation of 5'-ATA
same,sequence preference at the alkylation site,[2],5'-AAA>5'-TAA>5'-TTA>5'-ATA
COC(=O)c1cc2c3c(ccc2[nH]1)N(C(=O)c1cc2c4c(ccc2[nH]1)N(C(=O)c1cc2c([nH]1)C(=O)C=C1N(C(=O)OC(C)(C)C)C[C@H]5C[C@]125)CC4)CC3 [(+)-CDPI2 -DSA],alkylation at the natural-enantiomer high affinity site (5'-AATTA),w794 DNA [1],without detectable alkylation
same,high affinity alkylation site in w794 DNA,w794 DNA [1],5'-AATTT
same,AT-rich adenine N3 alkylation selectivity (size of site),[2],5 base-pair
same,sequence preference at the alkylation site,[2],5'-AAA>5'-AAT≥5'-TAA>5'-TAT
COc1ccc2c(c1)C13CC1CN(C(=O)c1cc4cc(OC)c(OC)c(OC)c4[nH]1)C3=CC2=O (stereo not drawn) [MCBI-TMI],relative rate of DNA alkylation at w794 high affinity site,w794 DNA [3],1.9 ×
"COC(=O)c1cc2c([nH]1)C(=O)C=C1N(C(=O)c3cc4c5c(ccc4[nH]3)N(C(=O)c3cc4c6c(ccc4[nH]3)N(C(N)=O)CC6)CC5)CC3CC123 (single isomer, unassigned) [ent-(-)-DSA-CDPI2]",high affinity alkylation site in w794 DNA,w794 DNA [1],5'-AATTT
same,high affinity alkylation site in w794 DNA,w794 DNA [1]; listed as (-)-DSA-CDPI2,5'-AATTT
same,AT-rich adenine N3 alkylation selectivity (size of site),[2],5 base-pair
same,AT-rich binding site covered in w836 DNA,w836 DNA,5 base-pair
same,alkylated adenines within six-base A-rich sequence of w836 DNA,w836 DNA,5' terminal adenines
same,time required to approach the same level of DNA alkylation as (+)-DSA-CDPI2,"w836 DNA; 5×10^6 M agent (so in the source), 25° C., w836 5'-AAAAAA",6 h
"COC(=O)c1cc2c([nH]1)C(=O)C=C1N(C(=O)c3cc4ccccc4[nH]3)CC3CC123 (single isomer, unassigned) [compound 53, Methyl 2-[(Indol-2-yl)carbonyl]-1,2,8,8a-tetrahydrocyclopropa[c]pyrrolo[3,2-e]indol-4-one-6-carboxylate]",concentration dependence of the rate of DNA alkylation,w794 DNA [5],independent of agent concentration
same,less effective at DNA alkylation than duocarmycin SA,w794 DNA [1]; (+) enantiomer,6-10 ×
same,less efficient DNA alkylation than 1,w794 DNA [1]; [7],20 ×
COc1cc2cc(C(=O)N3CC4CC45C3=CC(=O)c3ccccc35)[nH]c2c(OC)c1OC (stereo not drawn) [CBI-TMI],relative rate of DNA alkylation at w794 high affinity site,w794 DNA [3],1.0 ×
"COC(=O)c1cc2c3c(ccc2[nH]1)N(C(=O)c1cc2c4c(ccc2[nH]1)N(C(=O)c1cc2c([nH]1)C(=O)C=C1N(C(=O)OC(C)(C)C)CC5CC125)CC4)CC3 (stereo not drawn) [compound 20, 6-[7-[Methyl 1,2-Dihydro-(3H-pyrrolo[3,2-e]indole-3-yl)carbonyl-7-carboxylate]1,2-dihydro-(3H-pyrrolo[3,2-e]indole-3-yl)carbonyl]-2-((tert-butyloxy)carbonyl)-1,2,8,8a-tetrahydrocyclopropa[c]pyrrolo[3,2-e]indol-4-one]",alkylated adenines within six-base A-rich sequence of w836 DNA,w836 DNA,the natural enantiomer of 20 alkylated the same sites as ent-(-)-DSA-CDPI2 while the unnatural enantiomer of 20 alkylated the same sites as the natural enantiomer (+)-DSA-CDPI2
same,time required to reach a detectable and diminished level of DNA alkylation,"w836 DNA; 5×10^-6 M agent (so in the source), 25° C., both enantiomers",72 h
same,more potent cytotoxicity than simple derivatives N--BOC-DSA (4) and N--Ac-DSA,[6]; natural enantiomers,less than 10 ×
same,cytotoxic potency of the two enantiomers compared,[6]; natural versus unnatural enantiomer,nearly equipotent
COC(=O)c1cc2c3c(ccc2[nH]1)N(C(=O)c1cc2c([nH]1)C(=O)C=C1N(C(=O)c4cc5c6c(ccc5[nH]4)N(C(N)=O)CC6)CC4CC124)CC3 (stereo not drawn) [compound 30],AT-rich adenine N3 alkylation selectivity (size of site),[2],5 base-pair
same,time after which extensive DNA alkylation is exhibited,w836 DNA; [8],1 to 5 min
same,cytotoxic potency compared with typical agents,[6],essentially equipotent with the typical agents
